# Reference: patent publication US20200375996A1, “METHOD OF TREATING NEURODEGENERATIVE DISORDERS BY RESCUING ALPHA-SYNUCLEIN TOXICITY” (D.E. Shaw Research, LLC, priority 2015, published 2020)
# Experiments:
# [1] = tested on: K63 linkages in iPS derived human neurons; assay: K63-Ub linkages in human iPS derived neuronal cultures (immunoblot); assay type: cell-based
# Description: Human HEK-293 or neuronal cells treated with the appropriate compounds, were washed twice with ice cold PBS and then 0.5 ml of Lysis buffer was added and cells were scraped off the 10 cm dish (1 ml for 15 cm).
# Lysis buffer is 50 mM Tris/HCl pH 7.5, 1 mM EGTA, 1 mM EDTA, 0.5 or 1% (v/v) NP-40, 1 mM sodium orthovanadate, 50 mM NaF, 5 mM sodium pyrophosphate, 0.27 M sucrose, 10 mM sodium 2-glycerophosphate, 0.2 mM phenylmethylsulphonyl fluoride, 1 mM benzamidine, plus 100 mM iodoacetamide added fresh prior to lysis (weight powder, don't use a frozen stock solution) to inactivate deubiquitylase activities and add also pepstatin/aprotinin to inhibit proteases. Cell extracts were sonicated twice for 15 seconds each time and clarified by centrifugation at 14000 g for 15 min at 4° C. Supernatants were collected and filtered using a 0.45 uM MiniSart/Syringe. Next, protein concentrations were determined by Bradford procedure.
# The avidity based K63 linkage sensor protein was based on Sims et. al, 2012. Briefly, avidity based K63 sensor Halo-fusion protein was expressed in an E. coli expression vector and covalently bound to Halo-tag beads [Magne® HaloTag® Beads, 20% Slurry; Cat #G7281]. […] After incubation, the beads were washed three times with 1 ml of Lysis buffer containing 500 mM NaCl and once with 0.5 ml of 10 mM Tris/HCl pH 8.0. […] The eluate is heated at 75° C. for 5 min and analysed by immuno-blotting using an anti-K63 linkage specific antibody (http://www.abcam.com/ubiquitin-linkage-specific-k63-epr8590-448-antibody-ab179434.html).
# Pure neuronal cultures derived from human iPS cells were treated with DMSO, DES-2877, DES-4114 and #32 at 5 μM for 12 hours. […] Ubiquitylation site identification by mass spectrometry was performed as described Kim et al., (Systematic and quantitative assessment of the ubiquitin-modified proteome. Mol Cell. 2011; 44:325-340). and Sarraf et al., (Landscape of the PARKIN-dependent ubiquitylome in response to mitochondrial depolarization. Nature. 2013; 496:372-376).
# [2] = tested on: α-synuclein-expressing yeast; assay: α-synuclein toxicity rescue in yeast (growth, OD600); assay type: cell-based; conditions: for rescue of aSyn toxicity in yeast (in words): FIGS. 8A-8B
# Description: Yeast Strains and culturing: Yeast strains expressing alpha-synuclein have been described in Cooper at. al, 2006. (Cooper A A, et al. Alpha-synuclein blocks ER-Golgi traffic and Rab1 rescues neuron loss in Parkinson's models. Science. 2006 Jul. 21; 313:324) Strains express multiple copies of alpha-synculein for galactose-inducible expression. […] Yeast were cultured in complete synthetic media (CSM) and an appropriate dropout (lacking histidine or uracil) to maintain plasmids if required. For galactose-induction experiments, overnight cultures were grown in CSM/2% glucose to saturation and diluted 1:20 into CSM/2% raffinose for ˜2 generations. Cultures were then diluted into CSM/2% galactose at an optimum OD600 for the experiment (see ‘Growth assays’).
# Yeast Growth assays: Starting cultures for all dose-response assays were based on strains initially constructed in the lab to maintain homogeneity across experiments. All growth assays were carried out in 384 well format. Source plates were assembled in 96 well plates using multichannel pipettes to dilute rows in 1.6-fold serial dilutions of CSMGal. To these dilution series containing 2× final concentration of compound, 2×OD600 culture (in CSMGal) was dispensed with a multichannel pipette to achieve a final drug/culture mix with the desired OD600 and drug concentration. For WT yeast, the final starting OD600 was 0.01. For α-syn, the final starting OD600 was 0.02. Drug concentration ranges varied depending on efficacy, growth inhibition, and solubility in media. A Tecan EvoFreedom liquid handling robot was then used to transfer culture from 96 to 384 well format with each well being represented four times. Final well volume was 35 μL. Plates were then incubated in humidified containers at 30° C. for either 24 or 40 hours. Plates were then read with a Tecan Saphire plate reader at OD600.
# Raw OD600 values were transformed to “Relative Growth” in WT cells or “% Maximum Rescue” in α-syn experiments. In WT cells, the well background was subtracted and all values were then normalized to 100% for the untreated condition. In α-syn rescue experiments, the well background was subtracted and the maximum rescue in the particular experiment was normalized to 100%.
# Carboxypeptidase Y (CPY) = assay: Western blot of Carboxypeptidase Y (CPY) trafficking; assay type: cell-based, yeast
# Description: (§1) Protein analysis was performed in NoTox and HiTox strains with the compound treatment at indicated concentrations. Log phase CSM/2% raffinose cultures were induced with 2% galactose for 5 hours with DMSO or the compounds. Cultures were normalized to cell density and cell pellets prepared for SDS-PAGE. Cell pellets were boiled in SDS-loading dye for 15′, centrifuged, and resolved by 4-12% SDS-PAGE. CPY western blots were performed using culture conditions as described above. An anti-Cpy antibody (Invitrogen, A6428) was used at 1:5,000. Post-ER:ER ratios were quantitated using an IRDye800 secondary antibody (Li-Cor Odyssey, Rockland Immunochemicals) and scanned with the Li-Cor Odyssey imaging system. Significance was determined using a one-way ANOVA and Tukey's test of significance. From the same gel, total protein was detected by coomassie staining. Both blots and coomassie-stained gels were scanned using the Li-Cor Odyssey imaging system and quantitated. Significance was determined using a one-way ANOVA with Tukey's test of significance.
# Sna3-GFP [3] = assay: Sna3-GFP trafficking to the vacuole (Western blot, GFP cleavage); assay type: cell-based, yeast; conditions: for ratio of Sna3-GFP to free GFP: 10 μM, FIGS. 16A-16F, within the compound series; for Sna3-GFP trafficking to the vacuole (in words): galactose 5 hours, FIGS. 15B-15F
# Description: Log phase CsmRaf cultures of WT tagged Sna3-GFP cells were shifted to galactose for 5 hours in the presence or absence of the compounds. Cell pellets were lysed in SDS-loading dye and Sna3-GFP cleavage monitored by Western blotting with an anti-GFP antibody. Log phase CsmRaf cultures of WT or α-syn yeast were shifted to galactose for 5 hours in the presence or absence of the compounds at which point they were then prepared for Western blot analysis. FIGS. 15B-15F show Western blot analyses of Sna3-GFP for various compounds.
# Ratio of the intact Sna3-GFP to cleaved GFP was calculated for each of the conditions as a readout for efficiency of trafficking of the Sna3-GFP molecule to the vacuole. Polyubiquitination of Sna3-GFP was used as a readout for the intermediate step at the multivesicular body. Image Studio software was used to determine the intensities of the bands, based on linear interpolation of the mean signal intensities from each of the areas of interest and ratios were subsequently calculated in Microsoft Excel and plotted according to the compound series as shown in FIGS. 16A-16F. In the ‘32’ series of analogs, the ratio of Sna3-GFP to free GFP varied among the analogs, with DES-2179 having the lowest ratio of Sna3-GFP to free GFP and DES-2866 having the highest ratio (FIG. 16A). In the ‘91’ series of analogs, the ratio of Sna3-GFP to free GFP varied among the analogs, but less so than for the ‘32’ series (FIG. 16B). In the ‘4117’ series of analogs, the ratio of Sna3-GFP to free GFP was lowest for DES-5212 (FIG. 16C). […] In the ‘28’ series of analogs, DES-2817 had the lowest ratio of Sna3-GFP to free GFP (FIG. 16F). The other compounds in the ‘28’ series had ratios between ˜0.5 and 1.0 (FIG. 16F). In the ‘37’ series of analogs, the ratio of Sna3-GFP to free GFP was greatest for DES-2926 (FIG. 16F).
# [4] = tested on: aSyn-expressing yeast cells; assay: Morphological analysis of aSyn-expressing yeast cells; assay type: cell-based; conditions: 10 uM, galactose induction five hours, FIG. 10
# Description: Raffinose cultures of α-syn expressing yeast cells were grown up to the logarithmic phase in raffinose. Cultures were induced with galactose for five hours in the presence or absence of the indication concentration of the compounds. In the present example, the identified compounds were present at a concentration of 10 uM. Cells were centrifuged, media discarded, and then fixed with 4% paraformaldehyde in 1×PBS for 1 hr. The fixed culture was centrifuged, and the pellet resuspended in 0.4% paraformaldehyde in 1×PBS and kept at 4° C.
# Sna3-GFP [5] = assay: Immunoblot analysis of Sna3-GFP polyubiquitination in WT and α-syn cells; assay type: cell-based, yeast; conditions: FIG. 11B
# Description: as §1
# In WT Sna3-GFP cells, log phase CSMRaf cultures were shifted to galactose for 5 hours in the presence or absence of the compounds. Cell pellets were lysed in SDS-loading dye and Sna3-GFP cleavage monitored by Western blotting with an anti-GFP antibody. […]
# Rsp5 = target: T1, Rsp5 (Saccharomyces cerevisiae, UniProt P39940); assay: Back-Scattering Interferometry (BSI) binding to recombinant Rsp5; conditions: for Kd: 100 nM Rsp5, one-site saturation binding model, read-out: dissociation constant (Kd) for binding to Rsp5
# T1 sequence (P39940 431-809 limits assumed): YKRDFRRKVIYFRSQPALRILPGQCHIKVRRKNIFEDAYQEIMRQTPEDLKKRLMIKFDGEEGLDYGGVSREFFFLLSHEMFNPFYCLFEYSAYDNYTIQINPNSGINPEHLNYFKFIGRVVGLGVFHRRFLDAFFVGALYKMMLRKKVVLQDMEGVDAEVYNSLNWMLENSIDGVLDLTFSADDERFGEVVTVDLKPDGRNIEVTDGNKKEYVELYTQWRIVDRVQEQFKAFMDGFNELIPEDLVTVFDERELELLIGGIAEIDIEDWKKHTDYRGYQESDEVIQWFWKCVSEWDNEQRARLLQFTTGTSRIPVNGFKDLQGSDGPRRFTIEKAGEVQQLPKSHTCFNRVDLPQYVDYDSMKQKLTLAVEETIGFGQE
# Description: Sample Preparation of Rsp5 Target: Rsp5 was supplied in 15 μL aliquots of 100 μM (25 mM HEPES pH 7.5, 200 mM NaCl, 5 mM DTT) by St. Jude Research Hospital (Memphis, Tenn.) and was stored at −80° C. Immediately prior to assays fresh aliquots were thawed and diluted in 25 mM HEPES, pH 7.5, 200 mM NaCl, 1 mM DTT, 0.005% pluronic acid and 1% DMSO. The final Rsp5 concentration in the binding assay was 100 nM.
# Sample Preparation of compounds (ligands): The compounds were received as solids and reconstituted to either 40 or 20 mM in 100% DMSO and stored at −80° C. in single use aliquots. The final concentration of each ligand in an assay was 50 μM with a 2× serial dilution to create a 12-point curve.
# The assay buffer was 25 mM HEPES, pH 7.5, 200 mM NaCl, 1 mM DTT, 0.005% pluronic acid, 1% DMSO. The assay was run in Eppendorf 96-well PCR microplates. 55 μL of either Rsp5 or buffer (as control) were added to a each well. To these wells were added 55 μL of the compound dilution. A reference channel containing only buffer was setup as well for thermal compensation during assay measurements. The plates were heat sealed with foil and the assay plates were allowed to incubate at room temperature for 2 hours. Wells were pierced individually prior to sample injection and measurement of BSI signal (each well analyzed in duplicate). The assays were run using a glass microfluidic chip with a proprietary surface treatment on TruBind™ 100 system.
# The BSI signal was expressed as the magnitude of the spatial shift of the fringe pattern on a CMOS camera, measured in milliradians. The control signal was subtracted from assay signal for each compound dilution point. The resulting values were re-zeroed and analyzed with the GraphPad Prism program. The dissociation constant (Kd) was derived from non-linear least-squares fitting of the data using the one-site saturation binding model. The goodness of fit was judged by the calculated R^2 value. The difference and control curves for at least two successful assays were averaged. The resulting average difference curve was used to calculate the reported Kd value for each compound.
structure (smiles),measurement,setting,value
COc1cc(/C=N/Nc2nc(Nc3cccc(C(F)(F)F)c3)nc(N3CCOCC3)n2)ccc1O [DES-2179],K63-linked ubiquitination of proteins,"[1]; Nedd4-dependent manner, FIGS. 3A-3C",promote K63-linked ubiquitination of proteins
same,concentration at which efficacy of rescue peaks,"[2]; dose-response, FIG. 1B, above the peak growth slows",around 10 μM
same,Cpy trafficking defect (block in vesicle trafficking),Carboxypeptidase Y (CPY); FIG. 1C,ameliorate this defect
same,ratio of Sna3-GFP to free GFP,Sna3-GFP [3],lowest ratio
same,Sna3-GFP trafficking to the vacuole (in words),Sna3-GFP [3],promotes Sna3-GFP trafficking to the vacuole
O=C(c1ccc(COc2ccc(OC(F)(F)F)cc2)o1)N1CCN(c2ccccc2)CC1 [DES-2184],rescue of aSyn toxicity in yeast (in words),[2],also effective
CCCCc1ccc2nc(-c3ccc(-c4cc(Cl)cc(Cl)c4)o3)cc(C(=O)O)c2c1 [DES-2817],ratio of Sna3-GFP to free GFP,Sna3-GFP [3],lowest ratio
same,Sna3-GFP trafficking to the vacuole (in words),Sna3-GFP [3],promote Sna3-GFP trafficking to the vacuole
O=C(c1ccc(COc2ccc(OC(F)(F)F)cc2)o1)N1CCC(O)(c2ccc(Cl)cc2)CC1 [DES-2854],Sna3-GFP trafficking to the vacuole (in words),Sna3-GFP [3],promote Sna3-GFP trafficking to the vacuole
COc1cc(Cl)cc(/C=N/Nc2nc(Nc3ccc(C)c(Cl)c3)nc(N3CCOCC3)n2)c1O [DES-2866],rescue of aSyn toxicity in yeast (in words),[2],also effective
same,ratio of Sna3-GFP to free GFP,Sna3-GFP [3],highest ratio
COc1cc(Cl)cc(/C=N/Nc2nc(Nc3cc(C)ccc3C)nc(N3CCOCC3)n2)c1O [DES-2877],morphology: vesicular intermediates in yeast cells,[4],accumulation of vesicular intermediates
same,polyubiquitinated Sna3-GFP,Sna3-GFP [5],increase
same,K63 linkages in iPS derived human neurons,"[1]; 5 μM for 12 hours, FIG. 13A",modest increase
same,rescue of aSyn toxicity in yeast (in words),[2],most effective
same,Kd,Rsp5,1700 ± 400 nM
same,accumulation of CPY trafficking intermediates en route to the vacuole,Carboxypeptidase Y (CPY); FIG. 11D,increase
O=C(c1ccc(COc2ccc3ccccc3c2)o1)N1CCN(c2ncccn2)CC1 [DES-2926],ratio of Sna3-GFP to free GFP,Sna3-GFP [3],greatest
Cc1ccc(C2CC(C(F)(F)F)n3nc(C(=O)N4CCN(c5ccccc5)CC4)cc3N2)cc1 (stereo not drawn) [DES-2960],Sna3-GFP trafficking to the vacuole (in words),Sna3-GFP [3],promotes Sna3-GFP trafficking to the vacuole better than DES-2866 and DES-2928
COc1cc(/C=N/Nc2nc(Nc3ccccc3)nc(N3CCOCC3)n2)ccc1OCC#N [DES-3001],binding to Rsp5 (in words),Rsp5,did not show binding
same,Sna3-GFP trafficking to the vacuole (in words),Sna3-GFP [3],promote Sna3-GFP trafficking to the vacuole
O=C(Nc1cccc(Cl)c1)c1coc(CN2CCN(c3ccc(F)cc3)CC2)n1 [DES-3035],Sna3-GFP trafficking to the vacuole (in words),Sna3-GFP [3],promote Sna3-GFP trafficking to the vacuole
C(=N\Nc1nc(Nc2ccccc2)nc(N2CCOCC2)n1)/c1ccncc1 [DES-4117],binding to Rsp5 (in words),Rsp5,did not show binding
Cc1ccc(C)c(Nc2nc(N/N=C/c3ccncc3)nc(N3CCOCC3)n2)c1 [DES-5204],Sna3-GFP trafficking to the vacuole (in words),Sna3-GFP [3],promote Sna3-GFP trafficking to the vacuole
C(=N\Nc1cc(N2CCOCC2)nc(Nc2ccccc2)n1)/c1ccncc1 [DES-5212],Kd,Rsp5,680 ± 180 nM
same,ratio of Sna3-GFP to free GFP,Sna3-GFP [3],lowest
same,Sna3-GFP trafficking to the vacuole (in words),Sna3-GFP [3],promote Sna3-GFP trafficking to the vacuole
